Measured values taken from patent US6656911B2, “Serine protease inhibitors” (Cortech, Inc., priority 1994, dated 2003).

Assays:
[1] = molecular target: T1, human neutrophil elastase (HNE) (Homo sapiens, UniProt P08246); assay: HNE Ki of CE compounds, tested as described in WO 96/16080; type: biochemical; details: read-out: HNE Ki
T1 sequence (P08246 30-267): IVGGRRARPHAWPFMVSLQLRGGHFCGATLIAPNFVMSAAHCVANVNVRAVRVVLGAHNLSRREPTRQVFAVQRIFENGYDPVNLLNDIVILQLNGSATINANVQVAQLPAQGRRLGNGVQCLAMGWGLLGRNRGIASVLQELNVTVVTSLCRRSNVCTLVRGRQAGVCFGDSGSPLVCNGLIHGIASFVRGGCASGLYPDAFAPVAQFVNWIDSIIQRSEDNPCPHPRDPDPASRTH

[2] = tested on: polymorphoneucleocyte (PMN); assay: Extracellular Matrix (ECM) degradation assay; type: cell-based; details: PMN's stimulated with opsonized zymosan, 4 hr at 37° C.; for ECM DATA % Inhibition 1 uM / inhibition at 1 µM: 1 uM inhibitor; for ECM DATA % Inhibition 5 uM / inhibition at 5 µM: 5 uM inhibitor
Procedure: Forty-eight well plates on which extracellular matrix had been established were supplied to Cortech by Dr. Simon's group at the State University of New York at Stony Brook. Briefly, the plates were prepared as follows: R22 rat heart smooth muscle cells were seeded into wells at 2.5×10^4 cells/cm. The cells were fed every 4 days with Eagle's Minimal Essential Media supplemented with fetal bovine serum, tryptose phosphate broth, cefotaxime and streptomycin. At confluence, daily supplements of 50 ug/ml ascorbic acid were added for 8 to 10 days during the synthesis of the ECM layer. [^35S]sulfate and [^3H]proline were also added to the culture media to incorporate radiolabel into the matrix. Cells were later lysed with 25 mM NH4OH. Plates were washed three times with water and once with phosphate-buffered saline containing 0.02% NaN3. Plates were stored at 4° C. until use.
Matrix degradation assays were performed as follows: 0.40 ml of Hanks balance salt solution (HBSS) containing 1 or 5 uM test inhibitor (final concentration; diluted from DMSO stock solution; <2% DMSO final concentration) was added to the wells. After 30 minutes, 50 ul of a polymorphoneucleocyte (PMN) suspension was added resulting in 5×10^5 cells/well. PMN's were stimulated with opsonized zymosan. Zymosan particles were washed and suspended in 0.5 ml human serum for 1 hr at 37° C., vortexing every 15 min. The particles were then washed three times with HBSS and added to wells at a ratio of 10 particles/PMN in a volume of 50 ul. After a 4 hr incubation at 37° C., a 100 ul aliquot of the supernatant was withdrawn for scintillation counting. Following removal of the remaining supernatant, the residual ECM was solubilized with 0.5 ml 2M NaOH. The amount of tritium in this solubilized ECM was accessed by scintillation. ECM degradation data are expressed as (soluble counts released/total ECM counts)—(basal counts released without PMN's/total ECM counts).

[3] = Blood level screening after oral dose; type: in vivo, Sprague-Dawley rats; details: rat, oral gavage 10 mg/kg; for concentration at 1 h / concentration at 3 h / concentration at 6 h: male, Sprague-Dawley, plasma; for concentration at 1 h: read-out: Plasma Levels (μM) 1 hr; for concentration at 3 h: read-out: Plasma Levels (μM) 3 hr; for concentration at 6 h: read-out: Plasma Levels (μM) 6 hr
Procedure: The inhibitors were dissolved or suspended in polyethylene glycol (PEG), PEG-400 or PEG:H2O:EtOH at a concentration of 10 mg/ml. Unfasted male Sprague-Dawley rats were given an oral dose of this solution by gavage. Rats received 10 mg inhibitor/kg body weight in a volume of 1 ml/kg. After 1,3 or 6 hr., the rats were killed with an overdose of urethane (2.5 g/kg; i.p.) and the blood collected in a heparinized tube via cardiac puncture. Red blood cells were separated from the plasma by centrifugation.
Depending on the inhibitor, one of four organics (ethyl acetate, toluene, isopropyl ether or methyl t-butyl ether) was used to extract the compound from the plasma. Inhibitor concentrations were measured by HPLC or LC/MS analysis.

| Molecule | Ki [1] [nM] | ECM DATA % Inhibition 1 uM [2] [%] | ECM DATA % Inhibition 5 uM [2] [%] | Plasma Levels (μM) 1 hr [3] [µM] | Plasma Levels (μM) 3 hr [3] [µM] | Plasma Levels (μM) 6 hr [3] [µM] | inhibition at 1 µM [2] [%] | inhibition at 5 µM [2] [%] | concentration at 1 h [3] [µM] | concentration at 3 h [3] [µM] | concentration at 6 h [3] [µM] |
| --- | --- | --- | --- | --- | --- | --- | --- | --- | --- | --- | --- |
| 2-[(4-Fluorophenyl)-1,6-dihydro-1-pyrimidinyl]-N-[1-(2-[5-(3-methylbenzyl)-1,3,4-oxadiazolyl]carbonyl)-2-(S)-methylpropyl]acetamide [CE2254] | 2.4 | 57.2 | 58.4 | 1.751 | 1.575 | 2.316 | – | – | – | – | – |
| Cc1cccc(Cc2nnc(C(=O)[C@@H](NC(=O)[C@@H]3CCCN3C(=O)[C@@H](NC(=O)OCc3ccccc3)C(C)C)C(C)C)o2)c1 [CE2072, (Benzyloxycarbonyl)-L-valyl-N-[1-(2-[5-(3-methylbenzyl)-1,3,4-oxadiazolyl]carbonyl)-2-(S)-methylpropyl]-L-prolinamide] | – | – | – | – | – | – | 64.8 | 74.5 | 0.277 | 0.115 | 0.061 |
| CC(C)[C@H](NC(=O)[C@@H]1CCCN1C(=O)[C@@H](NC(=O)OCc1ccccc1)C(C)C)C(=O)c1nnc(Cc2ccc(N(C)C)cc2)o1 [CE2100, (Benzyloxycarbonyl)-L-valyl-N-[1-(2-[5-(4-Dimethylaminobenzyl)-1,3,4-oxadiazolyl]carbonyl)-2-(S)-methylpropyl]-L-prolinamide] | 0.069 | – | – | – | – | – | 57.6 | 56.6 | – | 0.064 | – |
| Cc1cccc(Cc2nnc(C(=O)[C@@H](NC(=O)Cn3c(-c4ccc(F)cc4)ncc(N)c3=O)C(C)C)o2)c1 [CE2101, 2-[5-Amino-6-oxo-2-(4-fluorophenyl)-1,6-dihydro-1-pyrimidinyl]-N-[1-(2-[5(3-methylbenzyl)-1,3,4-oxadiazolyl]carbonyl)-2-(S)-methylpropyl]acetamide] | – | – | – | – | – | – | 44.6 | 51.2 | 1.24 | 1.37 | 1.04 |
| Cc1cccc(Cc2nnc(C(=O)C(NC(=O)C3Cc4cccc5c4N3C(=O)C(N)CC5)C(C)C)o2)c1 [CE2130, (2S,5S)-5-Amino-1,2,4,5,6,7-hexahydroazepino-[3,2,1]-indole-4-one-carbonyl-N-[1-(2-[5-(3-methylbenzyl)-1,3,4-oxadiazolyl]carbonyl)-(R,S)-2-methylpropyl]amide] | 2.1 | – | – | – | – | – | 16.3 | 29 | – | 0.162 | – |
| Cc1cccc(Cc2nnc(C(=O)C(NC(=O)CN3C(=O)C(N)N=C(c4ccccc4)c4ccccc43)C(C)C)o2)c1 [CE2134, (R,S)-3-Amino-2-oxo-5-phenyl-1,4,-benzodiazepine-N-[1-(2-[5-(3-methylbenzyl)-1,3,4-oxadiazolyl]carbonyl)-2-(S)-methylpropyl]acetamide] | 2 | – | – | – | – | – | 21.7 | 25.7 | – | 5.02 | – |
| Cc1cccc(Cc2nnc(C(=O)C(NC(=O)CN3C(=O)NC(c4ccccc4)C3=O)C(C)C)o2)c1 [CE2149, 5-(R,S)-Phenyl-2,4-imidazolidinedione-N-[1-(2-[5-(3-methylbenzyl)-1,3,4-oxadiazolyl]carbonyl)-2-(S)-methylpropyl]acetamide] | 0.28 | – | – | – | – | – | 51.3 | 55.9 | 0 | 0 | 0 |
| Cc1cccc(Cc2nnc(C(=O)[C@@H](NC(=O)CN3C(=O)CN=C(c4ccccc4)c4ccccc43)C(C)C)o2)c1 [CE2157] | 1.4 | – | – | – | – | – | 9.96 | 13.4 | – | 3.81 | – |
| Cc1cccc(Cc2nnc(C(=O)[C@@H](NC(=O)[C@@H]3CCCN3C(=O)[C@@H](NS(C)(=O)=O)C(C)C)C(C)C)o2)c1 [CE2163, Methylsulfonyl-L-valyl-N-[1-(2-[5-(3-methylbenzyl)-1,3,4-oxadiazolyl]carbonyl)-2-(S)-methylpropyl]-L-prolinamide] | 0.75 | – | – | – | – | – | 54.7 | 64 | – | 0.316 | – |
| Cc1cccc(Cc2nnc(C(=O)[C@@H](NC(=O)CN3C(=O)N[C@H](C(C)C)C3=O)C(C)C)o2)c1 [CE2174, 4-(R)-Isopropyl-2,5-imidazolidinedione-N-[1-(2-[5-(3-methylbenzyl)-1,3,4-oxadiazolyl]carbonyl)-2-(S)-methylpropyl]acetamide] | 15.2 | 1.49 | 18.3 | 1.86 | 0.97 | – | – | – | – | – | – |
| CC(C)[C@H](NC(=O)[C@@H]1CCCN1C(=O)[C@@H](NC(=O)OCc1ccccc1)C(C)C)C(=O)c1nnc(Cc2ccc3c(c2)OCO3)o1 [CE2177, (Benzyloxycarbonyl)-L-valyl-N-[1-(2-[5-(3,4-methylenedioxybenzyl)-1,3,4-oxadiazolyl]carbonyl)-2-(S)-methylpropyl]-L-prolinamide] | 0.016 | – | – | – | – | – | 74.2 | 76.8 | 0.393 | 0.41 | 0 |
| CC(C)[C@H](NC(=O)[C@@H]1CCCN1C(=O)[C@@H](NC(=O)OCc1ccccc1)C(C)C)C(=O)c1noc(Cc2ccc3c(c2)OCO3)n1 [CE2178, (Benzyloxycarbonyl)-L-valyl-N-[1-(3-[5-(3,4-methylenedioxybenzyl)-1,2,4-oxadiazolyl]carbonyl)-2-(S)-methylpropyl]-L-prolinamide] | 0.29 | – | – | – | – | – | – | 34 | – | 0.185 | – |
| Cc1cccc(Cc2nnc(C(=O)C(NC(=O)CN3C(=O)C(c4ccccc4)N(C)C3=O)C(C)C)o2)c1 [CE2179, 5-(R,S)-Phenyl-1-methyl-2,4-imidazolidinedione-N-[1-(2-[5-(3-methylbenzyl)-1,3,4-oxadiazolyl]carbonyl)-2-(S)-methylpropyl]acetamide] | 7.6 | – | – | – | – | – | 48.8 | 45.9 | 1.23 | 0.599 | – |
| Cc1cccc(Cc2nnc(C(=O)C(NC(=O)CN3C(=O)C(Cc4ccccc4)N(CCN4CCOCC4)C3=O)C(C)C)o2)c1 [CE2184, 1-(N-Morpholinoethyl)-5-(S)-benzyl-2,4-imidazolidinedione-N-[1-(2-[5-(3-methylbenzyl)-1,3,4-oxadiazolyl]carbonyl)-2-(R,S)-methylpropyl]acetamide] | 8.2 | – | – | – | – | – | 30.5 | 32.4 | – | 0.57 | – |
| Cc1cccc(Cc2nnc(C(=O)[C@@H](NC(=O)CN3C(=O)NC(c4ccc(N(C)C)cc4)C3=O)C(C)C)o2)c1 (stereo partly shown) [CE2194] | 2.4 | 41 | 58.7 | 1.11 | 0.553 | – | – | – | – | – | – |
| Cc1cccc(Cc2nnc(C(=O)[C@@H](NC(=O)CN3C(=O)NC(C)(c4ccccn4)C3=O)C(C)C)o2)c1 (stereo partly drawn) [CE2216, [4-(R,S)-(2-Pyridyl)-4-(R,S)-methyl]-2,5-imidazolidinedione-N-[1-(2-[5-(3-methylbenzyl)-1,3,4-oxadiazolyl]carbonyl)-2-(S)-methylpropyl]acetamide] | 4.1 | 32.1 | 37.15 | 0.77 | 0.47 | 0.25 | – | – | – | – | – |
| (R,S)-3-Amino-2-oxo-5-phenyl-1,4-(2′-chlorobenzodiazepine)-N-[1-(2-[5-(3-methylbenzyl)-1,3,4-oxadiazolyl]carbonyl)-2-(R,S)-methylpropyl]acetamide [CE2223] | 0.93 | 34.15 | 36.15 | – | – | – | – | – | – | – | – |
